The values below come from patent US9796700B2 (Celgene CAR LLC, priority 2013, dated 2017).

For this experiment, the target named is Erk1 (Homo sapiens (Human), UniProt P27361). The experiment can be described thus: Protein Mass Modification Assay (intact protein MALDI). It counts as binding. The protocol:
Protein Mass Modification Assay
Intact protein: Erk1 from Millipore (Cat. No. 14-439) was incubated for 60 min. at room temperature with a 10-fold excess of test compound to protein. 4 μL aliquots of the resulting mixture were diluted with 15 μL of 0.2% TFA prior to micro C4 ZipTipping directly onto the MALDI target using sinapinic acid as the desorption matrix (10 mg/ml in 0.1% TFA:Acetonitrile 50:50, v/v). The centroid mass of the target protein in the control sample was compared with the centroid mass of the target protein incubated with compound. A shift in the centroid mass of the treated protein compared to the untreated protein was divided by the molecular weight of the compound. This number corresponds to the percentage of modified protein after one hour incubation. Results from this assay are reported in Table A under the column “ERK1 Mass Mod (%).”

Sequence of Erk1 (P27361 whole entry, looked up): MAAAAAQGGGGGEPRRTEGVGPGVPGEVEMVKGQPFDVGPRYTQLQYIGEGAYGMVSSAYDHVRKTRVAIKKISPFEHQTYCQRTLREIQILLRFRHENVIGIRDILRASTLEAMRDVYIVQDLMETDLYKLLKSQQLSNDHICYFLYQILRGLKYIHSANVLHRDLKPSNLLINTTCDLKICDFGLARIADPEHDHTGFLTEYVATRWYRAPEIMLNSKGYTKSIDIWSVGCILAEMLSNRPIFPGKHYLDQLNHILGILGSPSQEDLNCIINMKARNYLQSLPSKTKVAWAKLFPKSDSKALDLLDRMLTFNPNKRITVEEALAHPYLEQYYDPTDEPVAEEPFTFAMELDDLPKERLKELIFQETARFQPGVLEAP

As for `C=CC(=O)Nc1cc(C)ccc1Nc1nc(Nc2cc(C)nc(OC)c2)ncc1C(F)(F)F` [Compound I-295, N-(2-((2-((2-methoxy-6-methylpyridin-4-yl)amino)-5-(trifluoromethyl)pyrimidin-4-yl)amino)-5-methylphenyl)acrylamide], the “ERK1 Mass Mod (%)” value is “E (provided a mass modification of ≧70%)”. To `C=CC(=O)Nc1ccccc1Nc1nc(N[C@@H]2CCC[C@H](C(=O)O)C2)ncc1C(F)(F)F` (racemic) [Compound I-14, Rac-3-((4-((2-acrylamidophenyl)amino)-5-(trifluoromethyl)pyrimidin-2-yl)amino)-cis-cyclohexanecarboxylic acid] belongs “E (provided a mass modification of ≧70%)”; to `CC(=O)N1CCC[C@H](Nc2ncc(C(F)(F)F)c(NC3C4C=CC(C4)C3C(=O)NC#N)n2)C1` (mixture of isomers) [Compound I-25, Rac-3-((2-(((S)-1-acetylpiperidin-3-yl)amino)-5-(trifluoromethyl)pyrimidin-4-yl)-cis-amino)-N-cyanobicyclo[2.2.1]hept-5-ene-2-carboxamide], “G (proived a mass modification ≦30%)”; to `C=CC(=O)N(C)c1ccccc1Nc1nc(N[C@@H]2CCC[C@H](C(=O)NOC)C2)ncc1Cl` (racemic) [Compound I-106, Rac-cis-3-((5-chloro-4-((2-(N-methylacrylamido)phenyl)amino)pyrimidin-2-yl)amino)-N-methoxycyclohexanecarboxamide], “F (provided a mass modification of 31-69%)”. To `C/C=C/C(=O)Nc1cc(F)ccc1Nc1nc(N[C@@H]2CCC[C@H](C(N)=O)C2)ncc1Cl` (racemic) [Compound I-113, Rac-cis-(E)-3-((4-((2-(but-2-enamido)-4-fluorophenyl)amino)-5-chloropyrimidin-2-yl)amino)cyclohexanecarboxamide] belongs “F (key: E: provided a mass modification of ≧70%; F: provided a mass modification of 31-69%; G: proived a mass modification ≦30%)”.

On to `C=CC(=O)Nc1ccccc1Nc1nc(Nc2ccc(N(CCNC(=O)OC(C)(C)C)C(C)=O)cc2OC)ncc1Cl` [Compound I-174, tert-butyl (2-(N-(4-((4-((2-acrylamidophenyl)amino)-5-chloropyrimidin-2-yl)amino)-3-methoxyphenyl)acetamido)ethyl)carbamate], for which the “ERK1 Mass Mod (%)” value is “E (key: E: provided a mass modification of ≧70%; F: provided a mass modification of 31-69%; G: proived a mass modification ≦30%)”. The result for `C=C(C)C(=O)Nc1cc(F)ccc1Nc1nc(N[C@@H]2CCC[C@H](C(N)=O)C2)ncc1Cl` (racemic) [Compound I-114, Rac-cis-3-((5-chloro-4-((4-fluoro-2-methacrylamidophenyl)amino)pyrimidin-2-yl)amino)cyclohexanecarboxamide] reads “F (provided a mass modification of 31-69%)”; that for `C=CC(=O)Nc1ccccc1Nc1nc(Nc2cc(C(N)=O)ccn2)ncc1C(F)(F)F` [Compound I-83, 2-((4-((2-Acrylamidophenyl)amino)-5-(trifluoromethyl)pyrimidin-2-yl)amino)isonicotinamide], “E (provided a mass modification of ≧70%)”. The result for `C=CC(=O)Nc1ccccc1Nc1nc(Nc2ccc(N3CCN(C(=O)CCCC(=O)NCCCOCCOCCOCCCNC(=O)CCCC[C@@H]4SC[C@@H]5NC(=O)N[C@@H]54)CC3)cc2OC(F)F)ncc1Cl` [Compound I-306, 5-(4-(4-((4-((2-acrylamidophenyl)amino)-5-chloropyrimidin-2-yl)amino)-3-(difluoromethoxy)phenyl)piperazin-1-yl)-5-oxo-N-(15-oxo-19-((3aS,4S,6aR)-2-oxohexahydro-1H-thieno[3,4-d]imidazol-4-yl)-4,7,10-trioxa-14-azanonadecyl)pentanamide] reads “E (provided a mass modification of ≧70%)”.
